Results as given in PMC7010356, “The thermodynamic profile and molecular interactions of a C(9)-cytisine derivative-binding acetylcholine-binding protein from Aplysia californica” (Acta Crystallographica. Section F, Structural Biology …, 2020).

Target: T1, acetylcholine-binding protein (AcAChBP) (Aplysia californica, UniProt Q8WSF8)
T1 construct: recombinant AcAChBP with a C-terminal Tobacco etch virus cleavage site and His6 tag; homopentamer
T1 sequence (Q8WSF8 20-236): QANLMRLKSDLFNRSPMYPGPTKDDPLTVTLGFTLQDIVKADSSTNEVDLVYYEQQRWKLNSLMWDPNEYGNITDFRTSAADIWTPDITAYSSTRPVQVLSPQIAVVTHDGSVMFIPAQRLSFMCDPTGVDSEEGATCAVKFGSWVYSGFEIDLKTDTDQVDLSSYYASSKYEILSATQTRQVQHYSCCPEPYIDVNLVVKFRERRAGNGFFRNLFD
Assay: ITC and […] Å crystal structure

Compound `O=c1c(CCCO)ccc2n1C[C@@H]1CNC[C@H]2C1` [compound 4, (1R,5S)-9-(3-hydroxypropyl)-1,2,3,4,5,6-hexahydro-1,5-methano-8H-pyrido[1,2a][1,5]diazocin-8-one] has a Kd of 53.3 µM.
